{
  "source": "patent US9814703B2",
  "about": "“Methods for treating cancer by activation of BMP signaling” (The Board of Trustees of the Leland Stanford Junior …, priority 2013, dated 2017)",
  "key": {"[1]": {"test_system": "primary human bladder urothelial cells", "assay": "Hh pathway stimulation of primary human bladder urothelial cells, gene expression by quantitative RT-PCR", "format": "cell-based", "details": "SAG 200 nM or ShhN, 24 hours", "excerpt": "(§1) To determine whether Hh signaling regulates expression of BMP4 and BMP5 in human bladder, we first examined the expression of Hh pathway components in primary human bladder fibroblasts and epithelial cells. […] To evaluate response to the Hh signal, we treated cultured human bladder stromal and urothelial cells with ShhN protein or with the chemical pathway agonist SAG^24. […] Concomitant with the increase in GLI1 mRNA upon stimulation of the cultured human bladder stromal fibroblasts, we noted an increase in levels of BMP4 and BMP5 transcripts (FIG. 4B).\nFor BBN-induced bladder carcinogenesis, a 0.1% concentration of BBN was provided to mice ad libitum for 4-6 months. For Smo deletion experiments, a transgene expressing tamoxifen-activated Cre was used to selectively inactivate a conditional allele of Smo. […] Quantitative RT-PCR was used for measurement of RNA levels in samples isolated from the human and mouse bladder samples. […]\n(§2) Bladder samples were snap frozen in liquid nitrogen, homogenized with a mortar and pestle, and RNA extracted with the RNeasy Plus Mini kit (Qiagen). For quantitative RT-PCR of mRNA transcripts, first-strand cDNA was made using the SuperScript III First-Strand Synthesis SuperMix (Invitrogen 18080-400). Quantitative RT-PCR was performed using iQ SYBR Green Supermix (Bio-Rad 170-8880) and the Bio-Rad iCycler. […]"}, "[2]": {"test_system": "primary human bladder stromal cells", "assay": "Hh pathway stimulation of primary human bladder stromal cells, gene expression by quantitative RT-PCR", "format": "cell-based", "details": "24 hours; for Expression of BMP4 increased as compared to the unstimulated control / Expression of BMP5 increased as compared to the unstimulated control / Expression of GLI1 increased as compared to the unstimulated control: serum-starved, SAG 200 nM or Shh conditioned medium (ShhN)", "excerpt": "as §1\nFor BBN-induced bladder carcinogenesis, a 0.1% concentration of BBN was provided to mice ad libitum for 4-6 months. For Smo deletion experiments, a transgene expressing tamoxifen-activated Cre was used to selectively inactivate a conditional allele of Smo. To activate the BMP pathway, Alzet osmotic pumps were implanted subcutaneously to administer FK506 to mice exposed to BBN. Quantitative RT-PCR was used for measurement of RNA levels in samples isolated from the human and mouse bladder samples. For in vitro cultures, primary human bladder urothelial and stromal cells were treated with FK506 for 12 hours, or serum-starved and treated with SAG or Shh conditioned medium with or without cyclopamine for 24 hours prior to gene expression analyses.\nBladder samples were snap frozen in liquid nitrogen, homogenized with a mortar and pestle, and RNA extracted with the RNeasy Plus Mini kit (Qiagen). For quantitative RT-PCR of mRNA transcripts, first-strand cDNA was made using the SuperScript III First-Strand Synthesis SuperMix (Invitrogen 18080-400). Quantitative RT-PCR was performed using iQ SYBR Green Supermix (Bio-Rad 170-8880) and the Bio-Rad iCycler.\nPrimary human bladder urothelial cells (ScienCell 4320) and bladder stromal fibroblasts (ScienCell 4330) were cultured in Urothelial Cell Medium (ScienCell 4321) and Fibroblast Medium (ScienCell 2301) respectively to sub-confluency. Cells were then starved for 12 hours, followed by addition of Shh conditioned medium in the absence or in the presence of cyclopamine (3 uM, Toronto Research Chemicals), or treated with the Shh pathway agonist SAG (200 nM, Millipore) for 24 hours. In separate experiments, cells were treated with 20 ng/ml FK506 (Cayman Chemical) or DMSO for 12 hours. Following treatment, RNA was extracted using the Trizol reagent."}, "[3]": {"test_system": "BBN-induced bladder cancer", "assay": "BBN-induced bladder carcinogenesis in mice, progression to invasive carcinoma (histopathology)", "format": "in vivo", "excerpt": "To investigate the role of Bmp pathway activity in bladder tumor progression and to test the possibility that Bmp pathway activation might stimulate urothelial differentiation, which in turn might impede tumor progression, we exposed mice to BBN for 4 months, then initiated treatment with FK506 for another month while also continuing exposure to BBN (FIG. 5A). We have previously noted that mice exposed to BBN for 4 months develop pre-malignant lesions indistinguishable from human carcinoma-in-situ but not invasive carcinoma, which requires further BBN exposure^6.\nFor BBN-induced bladder carcinogenesis, a 0.1% concentration of BBN was provided to mice ad libitum for 4-6 months. For Smo deletion experiments, a transgene expressing tamoxifen-activated Cre was used to selectively inactivate a conditional allele of Smo. To activate the BMP pathway, Alzet osmotic pumps were implanted subcutaneously to administer FK506 to mice exposed to BBN. Quantitative RT-PCR was used for measurement of RNA levels in samples isolated from the human and mouse bladder samples. […]\nA 0.1% concentration of BBN (TCI America) was dissolved in drinking water, and BBN-containing water was provided to mice ad libitum for 4-6 months in a dark bottle. […] Bladders were collected and analyzed after 4 to 6 months of BBN administration. […]"}, "[4]": {"test_system": "primary human bladder urothelial cells", "assay": "BMP pathway activation in cultured urothelial cells, BMP target gene expression by quantitative RT-PCR", "format": "cell-based", "details": "20 ng/ml FK506, 12 hours", "excerpt": "As Bmp4 and Bmp5 secreted from stromal cells have the potential to act on urothelium, we tested the ability of cultured urothelial cells to respond to BMP pathway activation. For this purpose we selected FK506, an FDA-approved drug recently shown to activate BMP pathway at concentrations below those required for its immunosuppressant effects^27. […] Loss of Shh expression in human invasive carcinomas, as noted previously (FIG. 1A), would be expected to disrupt this signal feedback; this expectation was confirmed by a dramatic reduction of BMP4 and BMP5 expression in human invasive urothelial carcinoma as compared to benign bladder (FIG. 4D).\nFor BBN-induced bladder carcinogenesis, a 0.1% concentration of BBN was provided to mice ad libitum for 4-6 months. […] Quantitative RT-PCR was used for measurement of RNA levels in samples isolated from the human and mouse bladder samples. […]\nas §2"}, "[5]": {"details": "cyclopamine 3 uM added to Hh pathway stimulation"}},
  "data": [
    {"molecule": "CNC1CCC(N(Cc2cccc(-c3ccncc3)c2)C(=O)c2sc3ccccc3c2Cl)CC1", "note": "(centres unmarked) [SAG]", "values": [
      {"measurement": "Response of urothelial cells to Hh pathway stimulation (GLI1 expression)", "setting": "[1]", "result": "did not respond"},
      {"measurement": "Expression of BMP4 increased as compared to the unstimulated control", "setting": "[2]", "result": 5.8, "unit": "fold"},
      {"measurement": "Expression of BMP5 increased as compared to the unstimulated control", "setting": "[2]", "result": 2, "unit": "fold"},
      {"measurement": "Expression of GLI1 increased as compared to the unstimulated control", "setting": "[2]", "result": 5.4, "unit": "fold"}
    ]},
    {"molecule": "ShhN: ShhN protein, Hh ligand, applied as Shh conditioned medium", "values": [
      {"measurement": "Response of urothelial cells to Hh pathway stimulation (GLI1 expression)", "setting": "[1]", "result": "did not respond"},
      {"measurement": "Expression of BMP4 increased as compared to the unstimulated control", "setting": "[2]", "result": 3.9, "unit": "fold"},
      {"measurement": "Expression of BMP5 increased as compared to the unstimulated control", "setting": "[2]", "result": 1.6, "unit": "fold"},
      {"measurement": "Expression of GLI1 increased as compared to the unstimulated control", "setting": "[2]", "result": 1.6, "unit": "fold"}
    ]},
    {"molecule": "C=CC[C@@H]1/C=C(\\C)C[C@H](C)C[C@H](OC)[C@H]2O[C@@](O)(C(=O)C(=O)N3CCCC[C@H]3C(=O)O[C@H](/C(C)=C/[C@@H]3CC[C@@H](O)[C@H](OC)C3)[C@H](C)[C@@H](O)CC1=O)[C@H](C)C[C@@H]2OC", "note": "[FK506]", "values": [
      {"measurement": "Progression of bladder cancer in mice", "setting": "[3]; low-dose FK506, murine BBN model", "result": "halts progression"},
      {"measurement": "Development of invasive carcinoma in treated mice", "setting": "[3]; mice exposed to BBN 5 months, FK506 0.05 mg/kg/day by subcutaneous osmotic pump during the final month, cohort of 10 mice (control 7 of 9 invasive)", "result": "no invasive carcinoma was observed"},
      {"measurement": "Expression of BMP target gene CDKN1B increased as compared to the DMSO control", "setting": "[4]", "result": 2.4, "unit": "fold"},
      {"measurement": "Expression of BMP target gene ID4 increased as compared to the DMSO control", "setting": "[4]", "result": 1.6, "unit": "fold"}
    ]},
    {"molecule": "CC1=C2C[C@H]3[C@@H](CC=C4C[C@@H](O)CC[C@@]43C)[C@@H]2CC[C@]12O[C@@H]1C[C@H](C)CN[C@H]1[C@H]2C", "note": "[cyclopamine]", "values": [
      {"measurement": "Effect of added cyclopamine on the stimulated increase of BMP4 and BMP5 expression", "setting": "[2]; [5]", "result": "reversed"},
      {"measurement": "Effect of added cyclopamine on the stimulated increase of GLI1 expression", "setting": "[2]; [5]", "result": "reversed"}
    ]}
  ]
}
